Measured values taken from patent publication US7077859B2, “Apparatus and methods for variably controlled substance delivery from implanted prostheses” (Avantec Vascular Corporation, priority 2000, dated 2006).

Tests used:
[1] = Half life of mycophenolic acid bound to BSA (MPA-BSA), assayed by liquid chromatography; format: in vitro ADME
From the text: The MPA-BSA has an increases half time (as measured by assaying methods such as liquid chromotography) as compared to mycophenolic acid alone and as shown in the table below: […]

[2] = system: porcine smooth muscle cell cultures; assay: Thymidine incorporation (proliferation) in porcine smooth muscle cell cultures; format: cell-based; details: for IC50: Sus scrofa, amount of incorporated thymidine, concentrations 0.003-156 micromolar, FIGS. 20A-B, read-out: IC50 (concentration at which 50% of the cells are prevented from proliferating)
Protocol: In order to assess the effect of therapeutic capable agents of the present invention on cell cultures, samples of 5 sets of therapeutic capable agents, as listed below, in varying concentrations were prepared and added to different groups of porcine smooth muscle cell cultures according to standard procedures. Set A, B, C, D, and E corresponded to therapeutic capable agent sets: Mycophenolic acid & Dexamethasone; Mycophenolic acid & Triptolide; Wortmannin and Methotrexate; Triptolide; Mycophenolate Mofetil; respectively. The amount of incorporated thymidine for the different samples of varying concentrations (0.003, 0.031, 0.31, 1.6, and 3.1 micromolar) was measured.
In another group of therapeutic capable agents, the amount of incorporated thymidine for samples of varying concentrations (0.003, 0.031, 0.31, 1.6, 3.1, 31, and 156 micromolar) was measured.

MPA-BSA: mycophenolic acid (MPA) bound to Bovine Serum Albumin disposed adjacent the rate-controlling element, forming a complex
Half Life (T) ([1]; Blood or Tissue BSA Concentration 1%): 1.27 h
Half Life (T) ([1]; Blood or Tissue BSA Concentration 2%): 2.02 h
Half Life (T) ([1]; Blood or Tissue BSA Concentration 4%): 6.07 h
Half Life (T) ([1]; Blood or Tissue BSA Concentration 6%): 32.07 h
Stability of the complex compared to mycophenolic acid alone ([1]; metabolism to glucuronide derivative): more stable than mycophenolic acid alone

CN(Cc1cnc2nc(N)nc(N)c2n1)c1ccc(C(=O)N[C@@H](CCC(=O)O)C(=O)O)cc1 [Methotrexate]
Cell death (cell cultures): did not lead to significant cell death

COc1c(C)c2c(c(O)c1C/C=C(\C)CCC(=O)O)C(=O)OC2 [Mycophenolic acid, mycophenolic acid]
IC50 [2]: 1000 nM
Cell death (cell cultures): did not lead to significant cell death

CC(C)[C@]12O[C@H]1[C@@H]1O[C@]13[C@]1(O[C@H]1C[C@H]1C4=C(CC[C@@]13C)C(=O)OC4)[C@@H]2O [Triptolide]
Cell death (cell cultures): did not lead to significant cell death

COc1c(C)c2c(c(O)c1C/C=C(\C)CCC(=O)OCCN1CCOCC1)C(=O)OC2 [Mycophenolate Mofetil]
Effectiveness on cell proliferation (incorporated thymidine) ([2]; porcine smooth muscle cell cultures, 0.003-3.1 micromolar, FIG. 19E): may not be as effective in the absence of a bio-condition

C[C@@H]1C[C@H]2[C@@H]3CCC4=CC(=O)C=C[C@]4(C)[C@@]3(F)[C@@H](O)C[C@]2(C)[C@@]1(O)C(=O)CO [Dexamethasone]
Cell death (cell cultures): did not lead to significant cell death

C[C@H]1C[C@@H]2[C@H]([C@@H](O)C[C@@]3(C)[C@H]2CC[C@]3(O)C(=O)CO)[C@@]2(C)C=CC(=O)C=C12 [Methylprednisolone, methylprednisolone]
IC50 [2]: 1000 nM
